Values quoted from earlier work in patent publication US12648892B2, “Emergency eye wash” (Lebrun Labs LLC, priority 2024, dated 2026).

Legend:
eye = eye damage classification; cited from earlier work; note: key: GHS Category 1 (Chemicals that cause extreme and irreversible damage to the eye)
[1] = most extreme pH value found for each chemical; includes diluted chemicals; cited from earlier work

SMILES	in vivo GHS (eye)	pH [1]
CCCCCCCCCCCCCCCCCC[N+](C)(C)CCCCCCCCCCCCCCCCCC [compound 39]	1	5.5
C=CC(=O)OCCO [compound 81]	1	–
C[Si](C)(CCCN)O[Si](C)(C)CCCN [compound 91]	1	–
CCN(CC)CCCC(C)Nc1c2ccc(Cl)cc2nc2ccc(OC)cc12 (stereo not shown) [compound 3]	1	–
Cc1c(O)cccc1O [compound 100]	1	–
O=S1(=O)OC(c2cc(Br)c(O)c(Br)c2)(c2cc(Br)c(O)c(Br)c2)c2c(Br)c(Br)c(Br)c(Br)c21 [compound 90]	1	–
CSCCC(NC(C)=O)C(=O)O (racemic) [compound 88]	1	–
CC(O)C(=O)O (stereo not shown) [compound 17]	1	–
CCOC(=O)C(C)(C)O [compound 83]	1	–
O=C(O)CCC(=O)C(=O)O [compound 49]	1	1.5
O=C=Nc1ccc(Cl)c(Cl)c1 [compound 107]	1	–
CC(=O)O [compound 11]	1	–
Nc1cccc(N)c1 [compound 18]	1	–
O=S(=O)([O-])O.[Na+] [compound 65]	1	<1.0
c1c[nH]cn1 [compound 54]	1	10.5
[Na+].[OH-] [compound 56]	1	14.0
CCCCCCCCCCCCCCCC[n+]1ccccc1.[Br-] [compound 84]	1	–
CCCCO [compound 15]	1	–
CCCCC(CC)COC(=O)CC(C(=O)OCC(CC)CCCC)S(=O)(=O)[O-].[Na+] (stereo not shown) [compound 58]	1	6.5
Oc1ccc2ccc(O)cc2c1 [compound 99]	1	–
CCN(CC)CCO [compound 53]	1	11.5
OC1CCCCC1 [compound 47]	1	6.5
Oc1ccc(Cl)cc1Cc1ccccc1 [compound 82]	1	–
CC(CN1c2ccccc2Sc2ccccc21)N(C)C.Cl (stereo not shown) [compound 21]	1	–

SMILES	in vivo GHS (eye)	pH [1]
CCCOC(=O)C(C)O (stereo not shown) [compound 101]	1	–
CCCCCCCCCCCCCCCC[N+](C)(C)C.[Br-] [compound 28]	1	–
CCCCCCCC[N+](CCCCCCCC)(CCCCCCCC)CCCCCCCC.[Br-] [compound 66]	1	3.9
CC(C)(O)C(=O)O [compound 51]	1	1.0
CO[Si](CCCNCCN)(OC)OC [compound 95]	1	–
O=C(O)C(Cl)(Cl)Cl [compound 57]	1	<1.0
CC(C)(C)CC(C)(C)c1ccc(O)cc1 [compound 2]	1	–
CCC(C)(C)C(=O)O [compound 94]	1	–
CCCCCCCCCCCC[N+](C)(C)CCOc1ccccc1.[Br-] [compound 26]	1	–
CCCCCCCCCCCC[N+](C)(C)[O-] [compound 62]	1	9.0
O=C([O-])c1c(Cl)c(Cl)c(Cl)c(Cl)c1-c1c2cc(Br)c(=O)c(Br)c-2oc2c(Br)c([O-])c(Br)cc12.[Na+].[Na+] [compound 34]	1	–
O=C([O-])c1ccccc1O.[Na+] [compound 13]	1	–
O=C(O)CO [compound 6]	1	–
OCc1ccccc1 [compound 16]	1	–
Nc1ccc(F)cc1 [compound 50]	1	7.4
CC(C)(C)c1ccc(O)c(O)c1 [compound 96]	1	–
CCO[Si](CCCN)(OCC)OCC [compound 52]	1	11.0
CCCCCCCCN [compound 55]	1	11.8
CCCCCCCCCCCCCCCC[N+](C)(C)C.[Cl-] [compound 5]	1	–
CC(C)(O)CCC(C)(C)O [compound 68]	1	–
N#CSc1ccc(N)c([N+](=O)[O-])c1 [compound 106]	1	–
CCC[CH2][Sn]([CH2]CCC)([CH2]CCC)[O][Sn]([CH2]CCC)([CH2]CCC)[CH2]CCC [compound 9]	1	–
CCCCCCCCCCCC(=O)[O-].[K+] [compound 59]	1	10.5
Cc1ccccc1NC(=N)NC(=N)N [compound 92]	1	–

SMILES	in vivo GHS (eye)	pH [1]
O=C(O)Cc1cccc2ccccc12 [compound 43]	1	5.0
[Na+].c1nc[n-]n1 [compound 105]	1	–
CCCCCCCCCCCC(=O)O [compound 8]	1	–
C1CCOC1 [compound 48]	1	8.0
O=S(=O)(Cl)c1ccccc1 [compound 80]	1	–
O=C(O)c1ccccc1 [compound 32]	1	–
CCCCCCCCCCCCCCCCCC[N+](C)(C)C [compound 60]	1	4.2
O=C([O-])C(=O)[O-].[Na+].[Na+] [compound 4]	1	–
O=C(OC(C(=O)O)C(OC(=O)c1ccccc1)C(=O)O)c1ccccc1 (stereo not shown) [compound 87]	1	–
C=CC(=O)OCCOC [compound 79]	1	–
C#CC(C)(O)CC (stereo not shown) [compound 76]	1	–
CCCCOCCO [compound 46]	1	7.0
O=C(O)c1ccc(O)cc1O [compound 64]	1	3.0
c1ccncc1 [compound 20]	1	–
CCCCCCCCCCCC[N+](C)(C)CC(O)CS(=O)(=O)[O-] (stereo not shown) [compound 71]	1	–
CCCCCCCCCCCCCCCC[n+]1ccccc1.O.[Cl-] [compound 35]	1	–
O=c1[nH]sc2ccccc12 [compound 89]	1	–
COC(=O)CS [compound 93]	1	–
CCCCCCCCCCCCOS(=O)(=O)[O-].[Na+] [compound 7]	1	–
CCN(CC)CCC#N [compound 108]	1	–
O=C1C2CC=CCC2C(=O)N1SC(Cl)(Cl)Cl (stereo not shown) [compound 1]	1	–
CC(C=O)Cc1ccc(C(C)(C)C)cc1 (stereo not shown) [compound 38]	1	–
OCCCCCCCCCl [compound 69]	1	–
C=CC(=O)OCCOCCOCCOCCOC(=O)C=C [compound 42]	1	5.2
